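The compound was tested at five concentrations on cells cultured in 96-well plates, with a 48-hour exposure period. At the TGI there is no net growth.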

Test systems include NCI-H226 lung; CAKI-1 renal; SK-OV-3 ovarian; SF-539 CNS; COLO 205 colon; DLD-1 colon; SNB-19 CNS; DMS 273 small cell lung; SW-620 colon; SNB-75 CNS; A549 NSCLC; HCT-15 colon; NCI-H522 lung; UO-31 renal; MALME-3M melanoma; SF-295 CNS; OVCAR-3 ovarian; K-562 leukemia; OVCAR-5 ovarian; SK-MEL-5 melanoma.
Common to all, as to test: NCI-60 cell line screen, 48 h

In the case of `C[C@H](N)C(=O)N[C@@H]1[C@H]2C(=C(O)C[C@@H](O)[C@@H]2O)C(=O)O[C@@H]1C`, the TGI with NCI-H226 lung, with CAKI-1 renal, with SK-OV-3 ovarian, in the assay on SF-539 CNS, in the assay on COLO 205 colon and in the assay with DLD-1 colon was more than 100 µM throughout. The TGI in the assay on SNB-19 CNS, in the assay with DMS 273 small cell lung, in the assay with SW-620 colon, in the assay on SNB-75 CNS, in the assay with A549 NSCLC and in the assay with HCT-15 colon was more than 100 µM throughout. Besides, the TGI in the assay with NCI-H522 lung, with UO-31 renal, in the assay with MALME-3M melanoma, with SF-295 CNS, in the assay on OVCAR-3 ovarian and in the assay on K-562 leukemia was more than 100 µM in each case. The TGI with OVCAR-5 ovarian and with SK-MEL-5 melanoma was more than 100 µM in each case.

As to `COc1ccc(/C(Cl)=C(\C=O)c2ccccc2)cc1OC`, the TGI was 82.2 µM in the assay on NCI-H226 lung; more than 100 µM with CAKI-1 renal; more than 100 µM in the assay on SK-OV-3 ovarian; more than 100 µM in the assay with SF-539 CNS; 22.4 µM in the assay on COLO 205 colon; more than 100 µM with DLD-1 colon. For the same molecule, the TGI in the assay with SNB-19 CNS is more than 100 µM; in the assay on DMS 273 small cell lung, more than 100 µM; in the assay with SW-620 colon, more than 100 µM; with SNB-75 CNS, 52.2 µM; in the assay with A549 NSCLC, more than 100 µM; with HCT-15 colon, more than 100 µM. In addition, the TGI with NCI-H522 lung is 30.8 µM; in the assay with UO-31 renal, more than 100 µM; in the assay on MALME-3M melanoma it was more than 100 µM; in the assay on SF-295 CNS, 55.1 µM; in the assay with OVCAR-3 ovarian it was more than 100 µM; in the assay on K-562 leukemia it was more than 100 µM. Besides, the TGI with OVCAR-5 ovarian and with SK-MEL-5 melanoma was more than 100 µM in each case.

For the molecule `C[C@H](CN1CC(=O)NC(=O)C1)N1CC(=O)NC(=O)C1`, the TGI with NCI-H226 lung is more than 100 µM; with CAKI-1 renal it was more than 100 µM; with SK-OV-3 ovarian, more than 100 µM; in the assay on SF-539 CNS, more than 100 µM; with COLO 205 colon, more than 72.8 µM; in the assay with DLD-1 colon, more than 100 µM. The TGI in the assay with SNB-19 CNS was more than 100 µM; with DMS 273 small cell lung, more than 100 µM; in the assay with SW-620 colon, more than 84.4 µM; in the assay with SNB-75 CNS, more than 100 µM; with A549 NSCLC it was more than 100 µM; in the assay with HCT-15 colon it was more than 100 µM. Further, the TGI in the assay on NCI-H522 lung was more than 71.2 µM; with UO-31 renal, more than 44.1 µM; in the assay with MALME-3M melanoma, more than 100 µM; with SF-295 CNS, more than 100 µM; with OVCAR-3 ovarian, more than 100 µM; in the assay with K-562 leukemia it was more than 100 µM. The TGI in the assay with OVCAR-5 ovarian and in the assay with SK-MEL-5 melanoma was more than 100 µM each time.

In the case of `CCOC(=O)C1=NN(c2ccc(Cl)cc2)C2=CC(C)=NN(C)C(=S)N21`, the TGI with CAKI-1 renal is 50.4 µM; in the assay on SK-OV-3 ovarian, 94.4 µM; in the assay with SF-539 CNS, 56.5 µM; in the assay with COLO 205 colon, more than 100 µM; in the assay on SNB-19 CNS, more than 100 µM; in the assay with SW-620 colon, more than 100 µM. In addition, the TGI in the assay on SNB-75 CNS was 94.7 µM; in the assay on A549 NSCLC it was more than 100 µM; in the assay with HCT-15 colon, more than 100 µM; in the assay on NCI-H522 lung, 46.9 µM; in the assay on UO-31 renal, more than 100 µM; in the assay on SF-295 CNS, more than 100 µM. Besides, the TGI in the assay on OVCAR-3 ovarian, in the assay with K-562 leukemia, with OVCAR-5 ovarian and in the assay with SK-MEL-5 melanoma was more than 100 µM each time.

Take `O=C1OC(c2ccc(Cl)cc2)(c2ccc(Cl)cc2)c2c1ccc1ccccc21`: the TGI in the assay on NCI-H226 lung, in the assay with CAKI-1 renal, with SK-OV-3 ovarian, in the assay with COLO 205 colon, with DLD-1 colon and with SNB-19 CNS was more than 100 µM throughout. In addition, the TGI in the assay on DMS 273 small cell lung, in the assay on SW-620 colon, in the assay on SNB-75 CNS, with A549 NSCLC, in the assay with HCT-15 colon and with NCI-H522 lung was more than 100 µM in each case. The TGI with UO-31 renal, in the assay with MALME-3M melanoma, in the assay on SF-295 CNS, with OVCAR-3 ovarian, with K-562 leukemia and with OVCAR-5 ovarian was more than 100 µM throughout. The same molecule yielded a TGI in the assay with SK-MEL-5 melanoma of more than 100 µM.

On to `N/C(=N\N=C\c1cc2c(cc1Cl)OCO2)NO`, for which the TGI was more than 93.7 µM in the assay with NCI-H226 lung; more than 100 µM in the assay with CAKI-1 renal; more than 92.5 µM in the assay with SK-OV-3 ovarian; more than 95.6 µM in the assay on SF-539 CNS; more than 100 µM with COLO 205 colon; more than 100 µM in the assay with DLD-1 colon. Besides, the TGI in the assay on SNB-19 CNS was more than 45.4 µM; in the assay on DMS 273 small cell lung it was more than 77.8 µM; in the assay with SW-620 colon, more than 100 µM; in the assay on SNB-75 CNS, more than 100 µM; in the assay with A549 NSCLC it was more than 100 µM; in the assay with HCT-15 colon, more than 100 µM. Further, the TGI is more than 100 µM in the assay on NCI-H522 lung; 64.2 µM in the assay with UO-31 renal; more than 100 µM with MALME-3M melanoma; 74.8 µM in the assay with SF-295 CNS; more than 24.6 µM in the assay on OVCAR-3 ovarian; more than 100 µM with K-562 leukemia. The TGI in the assay with OVCAR-5 ovarian is more than 61.5 µM; with SK-MEL-5 melanoma, 58.9 µM.

In the case of `Nc1nn(CC(O)CO)c(=O)s1` (stereo not drawn), the TGI in the assay with NCI-H226 lung, in the assay with SK-OV-3 ovarian, in the assay on SF-539 CNS, in the assay with COLO 205 colon, in the assay on DLD-1 colon and in the assay with SNB-19 CNS was more than 100 µM throughout. Moreover, the TGI in the assay with DMS 273 small cell lung, with SW-620 colon, in the assay on SNB-75 CNS, in the assay with A549 NSCLC, in the assay on HCT-15 colon and in the assay with UO-31 renal was more than 100 µM in each case. Besides, the TGI in the assay on MALME-3M melanoma, in the assay with SF-295 CNS, in the assay with OVCAR-3 ovarian, in the assay with K-562 leukemia, in the assay on OVCAR-5 ovarian and in the assay on SK-MEL-5 melanoma was more than 100 µM each time.

Source of the values: PubChem BioAssay (NCI).
